Results on one molecule are retold here after US20250262188A1, “Methods of Increasing the Plasma Drug Exposure of Anticancer Agents” (Scandion Oncology A/S, priority 2021, published 2025).

Data set [1] is described as follows: SN-38 PK profile and tolerability in metastatic colorectal cancer patients treated with SCO-101 and FOLFIRI (Example 2). The format is in vivo, human. As for the experimental part: Patients with metastatic colorectal cancer were included in a study and treated with a combination of SCO-101 and FOLFIRI (combination of irinotecan, 5-FU and leucovorin) in 14 day treatment cycles. Patients received varying doses of Irinotecan between 50% and 80% of the recommended dose of Irinotecan (180 mg/m^2) according to their individual tolerability, which is standard practise. On days 1, 2, 3, 4, 5 and 6 in each treatment cycle, patients received one fixed daily dose of 150 mg SCO-101 taken in the morning at least 30 minutes before ingestion of food. On day 5 to 7, patients received FOLFIRI as specified for Colorectal cancer combination regimen 2.
Blood plasma samples were analysed for concentrations of SCO-101, irinotecan and SN-38 using Liquid Chromatography with Tandem Mass Spectrometric Detection (LC-MS/MS) bioanalytical method calibrated and validated in the rant 300 to 90.000 ng/ml. The method and system, including validation were according to industry standard. Data were analysed using commercially available software such as Win-Non-Lin (available from Certara inc.)
A trial was setup to address the safety, tolerability, and efficacy of SCO-101 given orally for 6 days followed by FOLFIRI at varying doses from day 5 to 7, in a biweekly schedule, in patients with metastatic colorectal cancer who have formerly been treated with FOLFIRI and afterwards progressed. The first part of the study was a dose-finding study, where the impact of SCO-101 on the pharmacokinetics (PK) of SN-38 was studied.
12 patients from the dose-finding part of the study received 150 mg SCO-101 for 6 days and […] of the recommended dose of FOLFIRI. 6 of the patients had RAS wildtype tumors and these patients were subjected to further analysis.
Blood for pharmacokinetic analysis was sampled from the patients were taken at 1, 2, 4, 8, 24, 48, and 96 hours after treatment with FOLFIRI and SCO-101.

For data set [2], the target named is T1, UGT1A1 (Homo sapiens, UniProt P22309).
T1 sequence (P22309 26-533): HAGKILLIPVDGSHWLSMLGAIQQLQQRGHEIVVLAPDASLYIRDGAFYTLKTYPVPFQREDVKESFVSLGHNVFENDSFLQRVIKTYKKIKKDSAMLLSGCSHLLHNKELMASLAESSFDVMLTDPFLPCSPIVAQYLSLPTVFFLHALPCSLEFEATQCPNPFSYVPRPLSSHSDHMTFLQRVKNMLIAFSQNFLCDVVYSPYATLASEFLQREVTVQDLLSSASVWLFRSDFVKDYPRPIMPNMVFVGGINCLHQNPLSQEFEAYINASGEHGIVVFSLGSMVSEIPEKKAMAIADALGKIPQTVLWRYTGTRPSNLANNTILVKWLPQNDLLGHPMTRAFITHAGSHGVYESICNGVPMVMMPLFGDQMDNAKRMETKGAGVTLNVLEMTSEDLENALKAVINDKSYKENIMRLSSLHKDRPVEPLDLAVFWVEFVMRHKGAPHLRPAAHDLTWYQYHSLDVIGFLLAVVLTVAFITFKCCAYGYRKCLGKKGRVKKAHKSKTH
Nature of the data set: In vitro UGT1A1 inhibition, recombinant human enzyme assays (Example 5). The class given is biochemical. From the text:
The term “UGT1A1 inhibitor” as used herein refers to a molecule which is capable of binding to human uridine diphosphate (UDP)-glycuronosyl transferase (UGT1A1), particularly in humans or animals and decrease the enzymatic activity of the UGT1A1. […] Whether or not a particular molecule is an UGT1A1 inhibitor can be determined by examining the molecule's IC50 in vitro in a UGT1A1 inhibition assays known in the art.
The inhibition of UGT1A1 was investigated by recombinant human enzyme assays.

The target in data set [3] is T2, ABCG2 (Homo sapiens, UniProt Q9UNQ0).
T2 construct: endogenous in cells; host or cells: HT29 and LoVo, parental and SN38-resistant
T2 sequence (Q9UNQ0 1-655): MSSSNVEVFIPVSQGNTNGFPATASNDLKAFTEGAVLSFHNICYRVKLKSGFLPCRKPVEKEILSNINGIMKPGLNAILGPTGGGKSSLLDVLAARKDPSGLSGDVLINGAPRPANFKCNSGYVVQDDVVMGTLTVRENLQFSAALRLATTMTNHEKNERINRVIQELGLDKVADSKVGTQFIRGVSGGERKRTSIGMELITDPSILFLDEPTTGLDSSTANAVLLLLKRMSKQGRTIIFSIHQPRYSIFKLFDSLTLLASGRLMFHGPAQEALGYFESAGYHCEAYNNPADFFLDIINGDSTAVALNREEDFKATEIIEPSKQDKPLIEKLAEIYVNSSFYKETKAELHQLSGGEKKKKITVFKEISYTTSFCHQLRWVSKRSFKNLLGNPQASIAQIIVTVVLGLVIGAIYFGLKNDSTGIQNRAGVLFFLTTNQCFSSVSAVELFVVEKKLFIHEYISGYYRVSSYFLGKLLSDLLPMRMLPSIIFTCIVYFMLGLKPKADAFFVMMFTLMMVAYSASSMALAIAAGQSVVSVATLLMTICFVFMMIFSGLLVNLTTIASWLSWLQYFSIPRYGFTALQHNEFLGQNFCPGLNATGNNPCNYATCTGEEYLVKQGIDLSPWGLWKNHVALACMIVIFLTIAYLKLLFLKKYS
The experiment in a line: Protein analysis of ABCG2 (western blot) in colon cancer cells (Example 4). The format is cell-based. The source says: (§1) Pairs of parental (sensitive) and SN38-resistant human colon cancer cell lines (HT29 and LoVo) were used. ABCG2 overexpression and effects of SCO-101 on ABCG2 was investigated by western blot, qPCR, dye-flux assays, bi-directional flux assays, 3H-SN38 accumulation assays and vesicular uptake assays. The effect of SCO-101 on SN38 re-sensitization was investigated by cell viability assays (MTT/PrestoBlue) and clonogenic assays.

Data set [4] deals with T2, ABCG2. Nature of the data set: Flux assays (dye-flux, bi-directional flux, 3H-SN38 accumulation, vesicular uptake) in colon cancer cells (Example 4). The following applies: parental and SN38-resistant HT29 and LoVo cells. The format is cell-based.
From the text: as §1

Turning to `O=C(Nc1cc(C(F)(F)F)cc(C(F)(F)F)c1)Nc1ccc(Br)cc1-c1nnn[nH]1` [SCO-101], the “Tolerability of the combined treatment” value in data set [1] (SCO-101 in combination with FOLFIRI, metastatic colorectal cancer patients) was “well tolerated”. Besides, in data set [1] (patients treated with SCO-101 and 90 mg irinotecan/m2 (50% FOLFIRI)), the “Toxicity profile (adverse events)” value was “only grade 1 and 2 adverse events”. The IC50 in data set [2] (read-out: IC50 towards UGT1A1) was approximately 0.1 µM. For the same molecule, the “UGT1A1 inhibition (in words)” value in data set [2] (recombinant human enzyme) is given as “potent inhibitor of UGT1A1”. Further, the “Effect on ABCG2 protein” value in data set [3] is on record as “causes degradation of ABCG2”. In data set [4], the “Effect on the activity of ABCG2 in flux assays” value is on record as “inhibited the activity of ABCG2”.
